Molecules are shown by their SMILES.

The test system of one data set is A549. The data set is described as follows: Antiproliferative activity against human A549 cells assessed as cell growth at 10 uM incubated for 72 hrs by MTT assay relative to untreated control. The format is functional. Particulars: A549, 72 h, read-out: Activity. For orientation: Tetrazolium assays rely on reduction of a dye to a coloured formazan, in cell work by metabolically active cells.

The nature of data set [1]: Antiproliferative activity against human IGR-39 cells assessed as cell growth at 10 uM incubated for 72 hrs by MTT assay relative to untreated control. Particulars: IGR-39, 72 h, read-out: Activity. Type of data set: functional.
For the next data set, the system named is U-87 MG. The data set is described as follows: Antiproliferative activity against human U87 cells assessed as cell growth at 10 uM incubated for 72 hrs by MTT assay relative to untreated control. The settings on record: read-out: Activity. Type of data set: functional, U-87MG ATCC.
The next data set has as its system MDA-MB-231. The data set is described as follows: Antiproliferative activity against human MDA-MB-231 cells assessed as cell growth at 10 uM incubated for 72 hrs by MTT assay relative to untreated control. Type of data set: functional. Particulars: MDA-MB-231, 72 h, read-out: Activity.
Another data set concerns MCF7. The data set is described as follows: Antiproliferative activity against human MCF7 cells assessed as cell growth at 10 uM incubated for 72 hrs by MTT assay relative to untreated control. Type of data set: functional. Particulars: MCF7, 72 h, read-out: Activity.
A further data set has as its system BT-474. The data set is described as follows: Antiproliferative activity against human BT474 cells assessed as cell growth at 10 uM incubated for 72 hrs by MTT assay relative to untreated control. The format is functional. The settings on record: BT-474, 72 h, read-out: Activity.
In the next data set the test system is BXPC-3. The data set is described as follows: Antiproliferative activity against human BxPC3 cells assessed as cell growth at 10 uM incubated for 72 hrs by MTT assay relative to untreated control. Type of data set: functional. Particulars: BXPC-3, 72 h, read-out: Activity.
For the next data set, the system named is SK-OV-3. The data set is described as follows: Antiproliferative activity against human SKOV3 cells assessed as cell growth at 10 uM incubated for 72 hrs by MTT assay relative to untreated control. Particulars: SK-OV-3, 72 h, read-out: Activity. The format is functional.
Another data set concerns NCI-H1299. The data set is described as follows: Antiproliferative activity against human NCI-H1299 cells assessed as cell growth at 10 uM incubated for 72 hrs by MTT assay relative to untreated control. The format is functional. The settings on record: NCI-H1299, 72 h, read-out: Activity.
The nature of data set [2]: Antiproliferative activity against human NHFB cells assessed as cell growth at 10 uM incubated for 72 hrs by MTT assay relative to untreated control. Type of data set: cell-based. Particulars: read-out: Activity.

Take `COc1ccc(C2CC(c3cccs3)=NN2C2=NC(=O)/C(=C3/C(=O)Nc4c(Br)cccc43)S2)cc1` (stereo not given): the growth at 10 µM is 86.1% in the data set on A549; 101% in data set [1]; 57% with U-87 MG; 73.9% in the data set on MDA-MB-231; 126% in the data set on MCF7; 94.3% in the data set on BT-474. The growth at 10 µM in the data set on BXPC-3 is 53.7%; with SK-OV-3 it was 88%; in the data set on NCI-H1299 it was 89.2%. The viability at 72 h, 10 µM in [2] turned out to be 46.3%.

As to `COc1ccc(C2CC(c3cccs3)=NN2C2=NC(=O)/C(=C3/C(=O)Nc4c(C)cc(C)cc43)S2)cc1` (stereo not given), the growth at 10 µM in the data set with A549 stood at 104%; in data set [1], 117%; in the data set on U-87 MG it was 126%; with MDA-MB-231, 111%; with MCF7, 114%; in the data set with BT-474 it was 103%. Further, the growth at 10 µM in the data set on BXPC-3 was found to be 72.3%; with SK-OV-3, 79.9%; with NCI-H1299, 120%. Also, the viability at 72 h, 10 µM in [2] worked out at 80.3%.

Consider `COc1ccc(C2CC(c3cccs3)=NN2C2=NC(=O)/C(=C3/C(=O)Nc4ccc(F)cc43)S2)cc1` (stereo not given), for which the growth at 10 µM with A549 amounted to 63.6%; in data set [1] it was 28.1%; in the data set with U-87 MG, 14.4%; with MDA-MB-231, 81.5%; in the data set with MCF7, 112%; with BT-474, 102%. For the same compound, the growth at 10 µM with BXPC-3 turned out to be 77.2%; in the data set with SK-OV-3, 94.1%; in the data set with NCI-H1299, 68.3%. In addition, the viability at 72 h, 10 µM in data set [2] was found to be 20%.

On to `COc1ccc(C2CC(c3ccc4ccccc4c3)=NN2C2=NC(=O)/C(=C3/C(=O)Nc4c(Br)cccc43)S2)cc1` (stereo not given), for which the growth at 10 µM in the data set with A549 turned out to be 94.2%; in data set [1] it was 98.6%; in the data set on U-87 MG, 96.7%; with MDA-MB-231, 68.2%; with MCF7 it was 102%; in the data set on BT-474, 88.2%. For the same compound, the growth at 10 µM in the data set with BXPC-3 was determined as 55.3%; in the data set on SK-OV-3 it was 89.9%; in the data set on NCI-H1299, 81%. Besides, in data set [2], the viability at 72 h, 10 µM stood at 47.3%.

Turning to `COc1ccc(C2CC(c3ccc4ccccc4c3)=NN2C2=NC(=O)/C(=C3/C(=O)Nc4c(C)cc(C)cc43)S2)cc1` (stereo not given), the growth at 10 µM in the data set with A549 was 43.8%; in data set [1], 63.4%; in the data set on U-87 MG, 64.2%; in the data set with MDA-MB-231 it was 73%; with MCF7, 120%; in the data set with BT-474 it was 62.2%. Besides, the results for the growth at 10 µM in the data set on BXPC-3, in the data set with SK-OV-3 and in the data set on NCI-H1299 were 44.9%, 26.6% and 87.8%, respectively. Moreover, the viability at 72 h, 10 µM in [2] is 55.6%.

Regarding `COc1ccc(C2CC(c3ccc4ccccc4c3)=NN2C2=NC(=O)/C(=C3/C(=O)Nc4c(F)cccc43)S2)cc1` (stereo not given), the growth at 10 µM in the data set with A549 turned out to be 86.5%; in data set [1], 109%; in the data set on U-87 MG, 86.2%; with MDA-MB-231, 87.3%; in the data set with MCF7, 118%; in the data set with BT-474 it was 112%. Further, the growth at 10 µM in the data set on BXPC-3 turned out to be 73.1%; in the data set with SK-OV-3 it was 67.7%; in the data set on NCI-H1299 it was 60.5%. Moreover, the viability at 72 h, 10 µM in data set [2] amounted to 89.4%.

Turning to `COc1ccc(C2CC(c3cccs3)=NN2C2=NC(=O)/C(=C3/C(=O)Nc4ccc(OC)cc43)S2)cc1` (stereo not given), the growth at 10 µM in the data set with A549 was 62.5%; in [1] it was 98.6%; in the data set with U-87 MG, 44.9%; in the data set on MDA-MB-231, 99.3%; in the data set on MCF7, 120%; in the data set on BT-474, 98.4%. The growth at 10 µM amounted to 67.6% with BXPC-3, 49.5% in the data set with SK-OV-3 and 85.9% in the data set on NCI-H1299. Besides, the viability at 72 h, 10 µM in data set [2] was 64.4%.
